Columns and labels:
Experiment in all cases: relative viability (nuclei count vs DMSO), 5 days (fraction); higher = more cells survive
MLN4924 + OSI-027 = compound: NS(=O)(=O)OC[C@@H]1C[C@@H](n2ccc3c(N[C@H]4CCc5ccccc54)ncnc32)C[C@@H]1O [MLN4924] + COc1cccc2cc(-c3nc([C@H]4CC[C@H](C(=O)O)CC4)n4ncnc(N)c34)[nH]c12 [OSI-027] (partner 0.5 µM)
In short: (§1)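 For relative viability, nuclei counts in treated wells were divided by those in vehicle wells. Lung cancer cell lines had been pin-tool dosed in 1536-well plates the day after seeding and cultured for 5 days, then fixed and stained in one step (final 0.05% Triton X-100, 1% formaldehyde, 1 ug/ml Hoechst) and imaged at 4×. Doses were one drug alone or a fixed anchor-drug dose plus five library-drug doses (not always all listed) in √10 steps, and values are duplicate-plate medians.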

Carboplatin + Vorinostat = compound: C1CC(C1)(C(=O)O)C(=O)O.[NH2-].[NH2-].[Pt+2] [Carboplatin] + O=C(CCCCCCC(=O)Nc1ccccc1)NO [Vorinostat] (partner 1 µM)
In short: as §1

MLN4924 + Crizotinib = compound: NS(=O)(=O)OC[C@@H]1C[C@@H](n2ccc3c(N[C@H]4CCc5ccccc54)ncnc32)C[C@@H]1O [MLN4924] + C[C@@H](Oc1cc(-c2cnn(C3CCNCC3)c2)cnc1N)c1c(Cl)ccc(F)c1Cl [Crizotinib] (partner 1 µM)
In short: as §1

Cell Line	relative viability (MLN4924 + OSI-027; first compound 0.04 µM)	relative viability (MLN4924 + OSI-027; first compound 0.1265 µM)	relative viability (MLN4924 + OSI-027; first compound 0.4 µM)	relative viability (MLN4924 + OSI-027; first compound 1.265 µM)	relative viability (MLN4924 + OSI-027; first compound 4 µM)	relative viability (Carboplatin + Vorinostat; first compound 0.08 µM)	relative viability (Carboplatin + Vorinostat; first compound 0.253 µM)	relative viability (Carboplatin + Vorinostat; first compound 0.8 µM)	relative viability (Carboplatin + Vorinostat; first compound 2.53 µM)	relative viability (Carboplatin + Vorinostat; first compound 8 µM)	relative viability (MLN4924 + Crizotinib; first compound 0.04 µM)	relative viability (MLN4924 + Crizotinib; first compound 0.1265 µM)	relative viability (MLN4924 + Crizotinib; first compound 0.4 µM)	relative viability (MLN4924 + Crizotinib; first compound 1.265 µM)	relative viability (MLN4924 + Crizotinib; first compound 4 µM)
NCI-H2023	0.383	0.361	0.163	0.0645	0.0536	0.628	0.733	0.434	0.299	0.11	0.579	0.918	0.298	0.0965	0.0683
NCI-H1666	0.862	0.892	0.711	0.351	0.325	1.09	0.966	1.04	0.921	0.665	1.18	0.669	0.306	0.25	0.236
HCC-15	0.347	0.197	0.139	0.0813	0.0848	0.923	0.904	0.859	0.743	0.558	0.505	0.2	0.227	0.0834	0.0819
NCI-H1648	0.246	0.235	0.21	0.205	0.228	0.527	0.544	0.434	0.351	0.357	–	–	–	–	–
NCI-H3122	0.917	0.603	0.219	0.122	0.121	0.874	0.729	0.99	1.06	1	0.369	0.338	0.358	0.178	0.153
201T	0.824	0.857	0.46	0.139	0.115	1.06	0.948	0.995	0.962	0.926	1.05	0.994	0.984	0.401	0.391
RERF-LC-KJ	0.576	0.52	0.217	0.175	0.224	0.797	0.642	0.735	0.676	0.505	0.786	0.471	0.225	0.221	0.207
ChaGo-K-1	0.461	0.35	0.272	0.181	0.176	0.752	0.704	0.649	0.577	0.4	0.908	0.595	0.451	0.325	0.324
NCI-H1734	0.498	0.832	0.304	0.124	0.142	0.823	0.83	0.78	0.779	0.545	0.688	0.622	0.305	0.121	0.131
NCI-H1651	0.694	0.828	0.866	0.398	0.161	0.617	0.556	0.588	0.524	0.483	0.913	0.85	0.76	0.357	0.167
PC-14	1.03	0.787	0.378	0.0583	0.065	0.862	0.783	0.582	0.234	0.142	0.872	0.888	0.591	0.161	0.109
NCI-H358	0.968	0.649	0.492	0.0759	0.118	0.735	0.668	0.681	0.664	0.53	0.69	0.506	0.285	0.168	0.156
NCI-H1915	0.567	0.544	0.452	0.213	0.205	0.508	0.506	0.513	0.48	0.299	0.862	0.751	0.844	0.19	0.15
Calu-6	–	–	–	–	–	–	–	–	–	–	0.677	0.426	0.197	0.0922	0.0977
EBC-1	–	–	–	–	–	–	–	–	–	–	0.167	0.189	0.215	0.149	0.156
IA-LM	–	–	–	–	–	0.952	1.05	1.05	0.913	0.81	0.314	0.211	0.134	0.0572	0.0763
NCI-H1975	0.704	0.934	1	0.618	0.261	0.783	0.711	0.579	0.534	0.656	0.876	1.11	1.17	0.484	0.22
BEN	0.318	0.308	0.228	0.218	0.195	0.658	0.611	0.598	0.625	0.581	0.73	0.38	0.272	0.172	0.17
NCI-H1563	0.981	1.04	0.74	0.526	0.524	–	–	–	–	–	1.1	1.14	1.01	0.579	0.552
EPLC-272H	0.291	0.265	0.0696	0.13	0.136	0.559	0.377	0.569	0.337	0.293	0.812	0.603	0.0795	0.136	0.201
NCI-H2228	0.611	0.683	0.148	0.141	0.14	0.748	0.0948	0.623	0.566	0.343	–	0.443	0.4	0.192	0.226
NCI-H1299	–	–	–	–	–	–	–	–	–	–	0.875	0.825	0.4	0.252	0.246
NCI-H2342	0.586	0.779	0.532	0.594	0.547	0.751	0.788	0.828	0.865	0.744	–	–	–	–	–
SW 900	0.266	0.412	0.217	0.0913	0.152	0.476	0.522	0.501	0.528	0.519	–	–	–	–	–
NCI-H1623	0.404	0.421	0.404	0.333	0.314	–	–	–	–	–	–	–	–	–	–
A549	–	–	–	–	–	–	–	–	–	–	0.772	0.634	0.416	0.0489	0.0552
NCI-H1792	0.663	0.765	0.839	0.593	0.54	–	–	–	–	–	0.961	0.906	0.834	0.69	0.346

From the supplement of paper PMC10307832
